Assay results published in patent publication US10881698B2, “Diagnosis and treatment for respiratory tract diseases” (THE TRUSTEES OF THE UNIVERSITY OF PENNSYLVANIA, priority 2012, dated 2021).
Changes are numbered by the printed parent chain.

Tests used:
[1] = target: T1, T2R38 (Homo sapiens, UniProt P59533, A49P/I296V); experiment: DAF-2/Texas Red dextran ratio assay of NO secretion into ASL; type: cell-based; conditions: 1 mM PTC, PAV/PAV
T1 construct: T2R38 is expressed in human upper airway epithelium; endogenous in cells; host or cells: primary human sinonasal epithelial cells, air-liquid interface cultures from surgical patients
T1 sequence (P59533 1-333 A49P/I296V): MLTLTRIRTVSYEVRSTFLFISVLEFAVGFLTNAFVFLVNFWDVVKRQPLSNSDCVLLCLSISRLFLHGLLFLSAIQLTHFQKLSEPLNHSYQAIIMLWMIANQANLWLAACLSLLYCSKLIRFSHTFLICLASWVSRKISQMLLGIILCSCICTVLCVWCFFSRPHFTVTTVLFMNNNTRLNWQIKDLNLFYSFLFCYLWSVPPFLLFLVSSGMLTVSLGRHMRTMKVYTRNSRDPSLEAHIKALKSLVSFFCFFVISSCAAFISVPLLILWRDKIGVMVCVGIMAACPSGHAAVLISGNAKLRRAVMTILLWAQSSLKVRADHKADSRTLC
Procedure: (§1) For measurement of NO secretion, a protocol was developed in which a solution of Texas Red Dextran (an NO-insensitive cell-impermeant dye) and DAF-2 (an NO-sensitive cell-impermeant dye) were added in a small volume (10 μl) to the apical surface of the cultures. The ratio of DAF-2/Texas Red fluorescence was recorded using wide-field epifluorescence microscopy at baseline and after incubation at 37° C. for the indicated times. This experiment was validated by addition of DETA-NONOate, an NO donor that releases 2 moles of NO per mole of parent molecule. DETA-NONOate was added on top of ALI cultures in pH 5 buffer to stimulate rapid decomposition. Imaging was performed using a Nikon 20×0.5 NA PlanFluor objective and 100 W mercury arc lamp with filters from Chroma Technologies (Rockingham, Vt.). Green filter contained a 480/40 nm band-pass [bp] excitation filter (reported as max transmission wavelength/filter width at half maximal transmission), a 505 nm dichroic mirror, and a 535/40 nm by emission filter. Red filter set contained a 560/40 nm by excitation filter, 595 dichroic mirror, and 630/60 nm by emission filter.
(§2) We also utilized a fluorescence-based assay to measure NO diffusion into the ASL. The apical surface of cultures was overlaid with a small volume (10 μl) of phosphate-buffered saline with or without 1 mM PTC containing 2 spectrally distinct cell-impermeant dyes, the NO-sensitive 4,5-diaminofluorescence diacetate (DAF-2) and the NO-insensitive Texas Red dextran ([…] MW); a ratiometric measurement was used to eliminate any artifacts due to expansion or contraction of ASL volume. The ratio of DAF-2/Texas Red fluorescence was recorded by fluorescence microscopy after 5, 30 and 60 min incubations at 37° C. […] We utilized this assay to determine if exposure to Pseudomonas and their secretions was sufficient to cause epithelial cells to produce NO with subsequent diffusion into the ASL. Log-phase cultures of PAO1 and PAO-JP2 were resuspended in PBS and placed on the ALI surface in the presence of DAF-2 and Texas Red.

[2] = target: T2, T2R38 (Homo sapiens, UniProt P59533, A262V); experiment: as above; type: cell-based; conditions: 1 mM PTC, AVI/AVI
T2 construct: T2R38 is expressed in human upper airway epithelium; endogenous in cells; host or cells: primary human sinonasal epithelial cells, air-liquid interface cultures from surgical patients
T2 sequence (P59533 1-333 A262V): T1 sequence (P59533 1-333 A49P/I296V) with P49A, A262V, V296I
Procedure: as §1, §2

[3] = test system: T2R38; experiment: NO metabolites in airway surface liquid by chemiluminescence; type: cell-based, human; conditions: 1 mM PTC; 20 min
Procedure: (§3) ASL from stimulated and unstimulated cultures (20 μL total volume for each) was collected after 20 min at 37° C. and frozen at −20° C. and protected from light until analysis. NO-metabolites were evaluated by reduction of metabolites with acidified-heated vanadium to nitric oxide and detection of nitric oxide by chemiluminescence on the Sievers 280 nitric oxide analyzer. Samples were injected into a custom made purge container containing 0.05 M Vanadium chloride in 1 N HCl heated to 95° C. The reading in millivolts was compared to a standard curve generated by injecting standard solutions of nitrate. This reductive method reports on the total levels of nitrate, nitrite, N-nitroso and iron-nitrosyl adducts as well as low molecular weight and protein S-nitrosothiol adducts.
(§4) The antibacterial properties of NO help maintain the sterility of the sinonasal airways. […] NO diffusion into the ASL was quantified by measuring NO-derived byproducts in 20 μL of airway surface liquid from cultures stimulated with 1 mM PTC (or PBS alone) for 20 min using reductive chemistries coupled with chemiluminescence detection of nitric oxide (FIG. 20A). ASL levels of NO metabolites (nitrate, nitrite, N-nitroso and iron-nitrosyl adducts as well as low molecular weight and protein S-nitrosothiol adducts) were not different in unstimulated PAV/PAV and AVI/AVI cultures (0.41±0.13 pmol/μL for PAV/PAV and 0.66±0.33 for AVI/AVI; n.s. vs PAV/PAV). However, the increase observed in PTC-stimulated PAV/PAV cultures was >2-fold larger than that observed in AVI/AVI cultures (FIG. 20A). In PTC stimulated cultures, NO metabolites in the ASL over 20 minutes were 4.37 pmol/μL (PAV/PAV; P<0.001 vs unstimulated PAV/PAV) and 1.72 pmol/μL (AVI/AVI; P<0.01 vs stimulated PAV/PAV; n.s. vs unstimulated AVI/AVI).

[4] = target: T1, T2R38; experiment: as above; type: cell-based; conditions: 1 mM PTC; PAV/PAV
Procedure: as §3, §4

[5] = target: T2, T2R38; experiment: as above; type: cell-based; conditions: 1 mM PTC; AVI/AVI
Procedure: as §3, §4

[6] = target: T3, PAV-TAS2R38 (Homo sapiens, UniProt P59533, A49P/I296V); experiment: Fluo-4 calcium mobilization in HEK293 cells expressing hTAS2R38 (PAV) and Gα16gustducin44; type: cell-based; conditions: 1 mM agonist; PAV variant
T3 construct: first 45 amino acids of rat SSTR-3 (N); host or cells: HEK293 (peakRapid), transient transfection, pcDNA3.1(+)
T3 sequence (P59533 1-333 A49P/I296V): T1 sequence (P59533 1-333 A49P/I296V)

[7] = test system: T2R38; experiment: Fluo-4 Ca2+ imaging in primary human sinonasal ALI cultures; type: cell-based; conditions: 1 mM PTC; PAV/AVI cultures
[8] = target: T1, T2R38; experiment: as above; type: cell-based; conditions: 1 mM PTC; PAV/PAV cultures
[9] = target: T2, T2R38; experiment: as above; type: cell-based; conditions: 1 mM PTC; AVI/AVI cultures
[10] = target: T4, AVI-TAS2R38 (Homo sapiens, UniProt P59533, A262V); experiment: Fluo-4 calcium mobilization in HEK293 cells expressing hTAS2R38 (AVI) and Gα16gustducin44; type: cell-based; conditions: 1 mM agonist; AVI variant
T4 construct: first 45 amino acids of rat SSTR-3 (N); host or cells: HEK293 (peakRapid), transient transfection, pcDNA3.1(+)
T4 sequence (P59533 1-333 A262V): T1 sequence (P59533 1-333 A49P/I296V) with P49A, A262V, V296I

[11] = test system: acutely dissociated sinonasal ciliated epithelial cells; experiment: Ca2+ and DAF-FM responses in acutely dissociated sinonasal ciliated cells; type: cell-based, human
[12] = test system: Pseudomonas aeruginosa; experiment: Kill assay with ASL from stimulated sinonasal ALI cultures (CFU plating); type: cell-based; conditions: for Growth of bacteria mixed with ASL from stimulated cultures: 10 mM denatonium, 300 μM absinthin, Pseudomonas aeruginosa; for Effect of solutions alone on growth: no ASL, Pseudomonas
[13] = test system: beta-defensin 2; experiment: Beta-defensin 2 secretion by sinonasal cultures; type: cell-based, human
[14] = test system: Methicillin-resistant Staphylococcus aureus (MRSA); experiment: Kill assay with ASL from stimulated sinonasal ALI cultures (CFU plating); type: cell-based; conditions: for Growth of bacteria mixed with ASL from stimulated cultures: 10 mM denatonium, 300 μM absinthin; for Effect of solutions alone on growth: no ASL
[15] = test system: Kleibsiella pneumoniae; experiment: Bactericidal effect of ASL from treated nasal cultures; type: cell-based; conditions: 10 mM denatonium or 300 μM absinthin
[16] = test system: nasal epithelial cells; experiment: Fluo-4 calcium signaling with denatonium in nasal epithelial cells (sinonasal ALI cultures); type: cell-based, human; conditions: 0.1-20 mM denatonium
[17] = target: T1, T2R38; experiment: DAF-FM imaging of NO production in human sinonasal ALI cultures; type: cell-based; conditions: thujone 5 mM, denatonium 10 mM; PAV/PAV cultures

| SMILES | Peak Fluo-4 fluorescence (ΔF/F) [6] | Peak Fluo-4 fluorescence (ΔF/F) [10] | Growth of bacteria mixed with ASL from stimulated cultures [12] | Effect of solutions alone on growth [12] | Beta-defensin 2 secretion [13] | Growth of bacteria mixed with ASL from stimulated cultures [14] | Effect of solutions alone on growth [14] | Bactericidal effect of ASL from treated nasal cultures [15] | further results |
| --- | --- | --- | --- | --- | --- | --- | --- | --- | --- |
| NC(=S)Nc1ccccc1 [PTC, phenylthiocarbamide] | 114±4% | −4±1% | – | – | – | – | – | – | DAF-2/Texas Red Dextran fluorescence ratio after PTC stimulation ([1]; 5 min): 0.46±0.10; DAF-2/Texas Red Dextran fluorescence ratio after PTC stimulation ([1]; 30 min): 1.55±0.17; DAF-2/Texas Red Dextran fluorescence ratio after PTC stimulation ([1]; 60 min): 2.52±0.76; DAF-2/Texas Red Dextran fluorescence ratio after PTC stimulation ([2]; 5 min): 0.54±0.1; DAF-2/Texas Red Dextran fluorescence ratio after PTC stimulation ([2]; 30 min): 0.71±0.1; DAF-2/Texas Red Dextran fluorescence ratio after PTC stimulation ([2]; 60 min): 0.90±0.3; Increase in NO metabolites, PTC-stimulated PAV/PAV relative to AVI/AVI cultures [3]: > 2 fold; NO metabolites in the ASL over 20 minutes [4]: 4.37 pmol/µL; NO metabolites in the ASL over 20 minutes [5]: 1.72 pmol/µL; Fluo-4 fluorescence after 5 min PTC [7]: 1.14±0.035; Fluo-4 fluorescence after 5 min PTC [8]: 1.30±0.027; Fluo-4 fluorescence after 5 min PTC [9]: 1.06±0.02; Ca2+ responses in acutely dissociated sinonasal ciliated cells [11]: occurred |
| CC1=C[C@H]2[C@H]3[C@H](C(C)=C4[C@H]5OC(=O)[C@@H](C)[C@@H]5CC[C@](C)(O)[C@@H]43)[C@@]13[C@@H]2[C@@](C)(O)CC[C@H]1[C@H](C)C(=O)O[C@@H]13 [absinthin] | – | – | 0 CFUs | had no effect | induced | 0 CFUs | had no effect | significant bactericidal effects | – |
| CC[N+](CC)(CC(=O)Nc1c(C)cccc1C)Cc1ccccc1 [denatonium, denatonium benzoate] | 1±2% | 3±1% | 0 CFUs | had no effect | induced | 0 CFUs | had no effect | significant bactericidal effects | Fluo-4 fluorescence on stimulation with denatonium [16]: increases fluo-4 fluorescence; NO production with non-T2R38 bitter ligands [17]: did not stimulate NO production |
